SMILES strings stand for the structures. pIC50: −log10 of the molar value.

The source of these data is article PMC10408170, “Synthesis, DFT and molecular docking of novel (Z)-4-bromo-N-(4-butyl-3 (quinolin-3-yl)thiazol-2(3H)-ylidene)benzamide as elastase inhibitor” (BMC Chemistry, 2023).

The test deals with T1, Elastase from porcine pancreas (Sus scrofa, UniProt P00772).
T1 construct: gene CELA1
Put plainly: enzyme inhibition assay, p-nitroaniline release from N-succinyl-Ala-Ala-Ala-p-nitroanilide. It counts as biochemical.

T1 sequence (P00772 27-266): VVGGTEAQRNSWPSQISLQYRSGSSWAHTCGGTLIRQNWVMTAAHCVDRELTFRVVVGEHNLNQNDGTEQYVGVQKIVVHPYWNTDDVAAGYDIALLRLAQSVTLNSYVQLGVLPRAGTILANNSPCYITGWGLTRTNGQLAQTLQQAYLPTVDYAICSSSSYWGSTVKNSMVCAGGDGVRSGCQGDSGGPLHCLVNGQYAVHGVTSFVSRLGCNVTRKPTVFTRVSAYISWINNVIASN

Take `CCCCc1cs/c(=N\C(=O)c2ccc(Br)cc2)n1-c1cnc2ccccc2c1` [compound 6, (Z)-4-bromo-N-(4-butyl-3-(quinolin-3-yl)thiazol-2(3H)-ylidene)benzamide]: the pIC50 (commonly −log10 of the IC50, conventionally taken in molar units) was 5.92.
